Assay results as given in paper PMC5808361 (Journal of Medicinal Chemistry, 2017).
Like-named read-outs stand apart in the source and are kept apart here.

Tests used:
[1] = system: 55 protein targets (47 GPCRs, five ion channels, and three transporters); assay: CEREP selectivity panel; type: binding; conditions: at 10 μM
[2] = system: 31 other lysine methyltransferases, arginine methyltransferases, and DNA and RNA methyltransferases; assay: Methyltransferase selectivity assays; type: biochemical; conditions: compound concentrations of 1, 5, and 20 μM
human Flag-tagged PRMT3 = human Flag-tagged PRMT3 (Homo sapiens, UniProt O60678); assay: Cellular PRMT3 assay; type: cell-based
human Flag-tagged PRMT3, sequence (O60678 whole entry): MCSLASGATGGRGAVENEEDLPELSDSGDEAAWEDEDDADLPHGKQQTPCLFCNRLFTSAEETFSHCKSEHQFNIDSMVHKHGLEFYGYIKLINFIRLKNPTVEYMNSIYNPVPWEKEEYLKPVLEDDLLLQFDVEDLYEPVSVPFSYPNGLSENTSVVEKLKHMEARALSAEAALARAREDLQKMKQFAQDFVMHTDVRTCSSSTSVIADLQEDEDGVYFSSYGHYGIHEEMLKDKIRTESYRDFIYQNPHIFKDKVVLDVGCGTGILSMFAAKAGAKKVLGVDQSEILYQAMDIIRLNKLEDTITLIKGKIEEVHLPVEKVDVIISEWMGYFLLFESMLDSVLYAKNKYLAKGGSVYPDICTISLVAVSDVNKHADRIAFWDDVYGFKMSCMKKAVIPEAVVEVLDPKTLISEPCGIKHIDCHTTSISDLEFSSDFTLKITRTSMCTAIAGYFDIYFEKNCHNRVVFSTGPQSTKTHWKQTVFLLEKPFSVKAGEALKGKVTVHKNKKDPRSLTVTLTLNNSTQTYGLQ

PRMT3 = PRMT3 (Homo sapiens, UniProt O60678); assay: PRMT3 biochemical assay
PRMT3, sequence (O60678 whole entry): as above

CC1CCC(C)N1C(=O)CNC(=O)Nc1ccc2cnccc2c1 (stereo not drawn) [Compound 30, 1-(2-(2,5-Dimethylpyrrolidin-1-yl)-2-oxoethyl)-3-(isoquinolin-6-yl)urea]
% of inhibition (off-target activities) [1]: < 50%

O=C(NCC(=O)N1CCCC1)Nc1cc2ccncc2cc1F [Compound 36, 1-(7-Fluoroisoquinolin-6-yl)-3-(2-oxo-2-(pyrrolidin-1-yl)ethyl)urea]
selectivity for PRMT3 over 31 other methyltransferases (in words) [2]: highly selective for PRMT3 | % of inhibition (off-target activities) [1]: < 50% | effect on H4R3me2a levels (in words) (human Flag-tagged PRMT3): matched with that of the catalytically dead PRMT3 mutant E335Q

O=C(NCC(=O)N1CC(F)(F)C(F)(F)C1)Nc1ccc2cnccc2c1 [Compound 29, 1-(Isoquinolin-6-yl)-3-(2-oxo-2-(3,3,4,4-tetrafluoropyrrolidin-1-yl)ethyl)urea]
selectivity for PRMT3 over 31 other methyltransferases (in words) [2]: highly selective for PRMT3 | % of inhibition (off-target activities) [1]: < 50% | effect on H4R3me2a levels (in words) (human Flag-tagged PRMT3; 1 μM compound, compared with catalytically dead PRMT3 mutant E335Q): matched with that of the catalytically dead PRMT3 mutant E335Q

CN1CCN(C(=O)CNC(=O)Nc2ccc3cnccc3c2)CC1 [Compound 18, 1-(Isoquinolin-6-yl)-3-(2-(4-methylpiperazin-1-yl)-2-oxoethyl)urea]
PRMT3 inhibitory activity (in words) (PRMT3; PRMT3 biochemical assay): loss of the inhibitory activity

CON(C)C(=O)CNC(=O)Nc1ccc2cnccc2c1 [Compound 22, 2-(3-(Isoquinolin-6-yl)ureido)-N-methoxy-N-methylacetamide]
fold less potent than 5 (PRMT3; PRMT3 IC50 relative to compound 5): around 6 fold
